Results from US10782292B2, “Antibiotic susceptibility testing via plasmonic imaging and tracking” (priority 2015, dated 2020).
“Also recorded” adds a separate entry of the source.

What was measured:
E. coli O157:H7 [1] = test: Plasmonic imaging and tracking (PIT) of Z-movement (nanomotion) of single antibody-tethered bacterial cells; assay type: cell-based
[2] = tested on: UPEC E. coli strain CFT073; test: PIT of Z-movement (nanomotion) of UPEC cells immobilized with APTES linker; assay type: cell-based; settings: PMB 1 mg/mL, APTES surface, 1×PBS, FIG. 12
Protocol: We immobilized the UPEC strain on the sensor using the (3-aminopropyl)-triethoxysilane (APTES) linker, rather than using the antibody immobilization for the E. coli O157:H7 study described above. We studied the nanomotion changes as antibiotic PMB acted on bacterial cells at a bactericidal concentration of 1 mg/mL. […] These experiments indicate that the methods may be used for different bacterial strains and different antibiotics. To fully establish the present method for rapid AST in clinical settings, additional and more comprehensive tests will still be needed in the future.
An aliquot of frozen E. coli O157:H7 or E. coli CFT073 strain was thawed and used to inoculate 10 mL of LB medium. […]
All plasmonic imaging sequences were collected at 106 fps at a pixel resolution of 640×480. […] Images were recorded in either transmitted or plasmonic imaging mode for various time durations. […]
More specifically, the plasmonic image intensity was calculated by obtaining averaged intensity within a fixed area around the bacterial cell using the bare gold chip regions as reference. The Z-distance of the bacterial cell above the sensor surface was then calculated from the plasmonic image intensity (Iz) with a calibrated curve, given by Iz=I0 exp(−Δz/L), where I0 is a constant, Δz is the z displacement of a bacterial cell, and L is the decay constant. […]

E. coli O157:H7 [3] = test: Culturing in LB medium after antibiotic treatment on the sensor chip (validation of cell death); assay type: cell-based
Text: […] the addition of polymyxin B, Z-movement decreases from ±5 nm to ±0.5 nm, which is close to the Brownian motion of a dead bacterium. We further validated the metabolic state by culturing and elongating the tethered cell in standard Luria Broth (LB) media before adding the antibiotic.
Referring now to FIG. […] PMB is a bactericidal antibiotic which kills Gram-negative bacteria by permeabilizing the outer membrane.^60 At high concentrations, […], PMB also depolarizes the cytoplasmic membrane, causing ion-permeable pores in the cell envelope.^30 Within a few seconds after adding the antibiotic, there was a marked decrease in the Z-movement of the bacterial cell from about ±3 to about ±1 nm. We further observed that after a few minutes, the bacterial cell Z-movement reached a baseline value of ±0.5 nm. […] The decrease in bacterial cell length has been previously correlated to cell lysis and cell death after the addition of polypeptide antibiotics.^69 We validated the correlation between the decreases in nanomotion and change of the bacterial metabolic state by replacing the antibiotic-containing PBS with LB medium (lacking PMB) on the sensor chip. […] We subsequently collected a small sample volume from the above sensor chip and subjected it to culturing overnight in LB medium.
(§1) Referring now specifically to FIG. 3D, there shown are control experiment data comparing Z-movement in PBS 102 and on injections of 2% glucose 104, 1×PBS 106, and antibiotic 108. […] After subsequently eliminating glucose in the 1×PBS medium, the amplitude of the nanomotion, measured over 1 s windows for 20 s videos, decreased back to the level prior to the injection of glucose (as shown in FIG. 3E). The positive correlation between glucose injection and Z-movement strongly supports that bacterial cell nanomotion originates from metabolic activity rather than Brownian motion.

UPEC strain = test: Overnight culturing in LB medium after antibiotic treatment (validation of cell death), UPEC; assay type: cell-based, E. coli CFT073; settings: after PMB 1 mg/mL
E. coli O157:H7 [4] = test: Transmitted microscope image of bacterial cell length after adding antibiotic; assay type: cell-based
Protocol: Referring now to FIG. 3C the effect of antibiotic polymycin B at a concentration of 500 μg/mL on Z-movement of a bacterial cell is shown. […] PMB is a bactericidal antibiotic which kills Gram-negative bacteria by permeabilizing the outer membrane.^60 At high concentrations, such as […] used in this study, PMB also depolarizes the cytoplasmic membrane, causing ion-permeable pores in the cell envelope.^30 Within a few seconds after adding the antibiotic, there was a marked decrease in the Z-movement of the bacterial cell from about ±3 to about ±1 nm. We further observed that after a few minutes, the bacterial cell Z-movement reached a baseline value of ±0.5 nm. […]
as §1, with “The positive correlation between glucose injection and Z-movement strongly supports that bacterial cell nanomotion originates from metabolic activity rather than Brownian motion.” left out
All plasmonic imaging sequences were collected at 106 fps at a pixel resolution of 640×480. […] Images were recorded in either transmitted or plasmonic imaging mode for various time durations.

Gram-negative bacteria = settings: literature reference 30; cited from earlier work

Row | Molecule | Change in nanomotion (Z-movement) at sub-bactericidal concentration (E. coli O157:H7 [1]; 0.5 μg/ml (b80 prints 0.5 g/mL), after 20 min, 1×PBS, FIG. 10, listed as PMB) | Change in nanomotion (Z-movement) at 5× bactericidal concentration (E. coli O157:H7 [1]; 100 μg/m, 1×PBS, FIG. 10, listed as PMB) | Change in nanomotion after antibiotic in glucose control experiment (E. coli O157:H7 [1]; PMB 75 µg/mL (bactericidal concentration), FIG. 3D) | Change in Z-motion of a bacterial cell after adding antibiotic (E. coli O157:H7 [1]; added at t=120 s, FIG. 3A) | Nanomotion after replacing antibiotic-containing PBS with LB medium (E. coli O157:H7 [1]; after PMB 500 µg/mL, LB lacking PMB) | Change in nanomotion (Z-movement) of UPEC cells ([2]; listed as PMB) | Change in nanomotion (Z-movement) of UPEC cells ([2]; listed as polymycin B) | Bacterial growth on overnight culturing in LB medium (E. coli O157:H7 [3]; after PMB 75 µg/mL) | Cellular growth on subsequent incubation in LB media (E. coli O157:H7 [3]; after polymyxin B 75 μg/ml) | Growth of bacterial cells after overnight incubation in LB medium (E. coli O157:H7 [3]; sample from sensor chip after PMB 500 µg/mL) | Overnight culturing in LB medium of UPEC sample (UPEC strain; listed as PMB) | Overnight culturing in LB medium of UPEC sample (UPEC strain; listed as polymycin B) | Cell length in transmitted microscope image after antibiotic (E. coli O157:H7 [4]; PMB 75 µg/mL, FIG. 11) | Bacterial cell length after adding antibiotic (E. coli O157:H7 [4]; high antibiotic concentration (500 g/mL study)) | Concentration at which bactericidal activity has been observed (Gram-negative bacteria) [g/mL] | Change in nanomotion (Z-movement) after streptomycin (E. coli O157:H7 [1]; streptomycin 1 mg/mL, PBS supplemented with LB (0.4×LB media), FIG. 13) | Overnight culturing after streptomycin (E. coli O157:H7 [3]; after streptomycin 1 mg/ml)
1 | Polymyxin B | did not observe changes in the nanomotion; also recorded: does not change the Z-movement | significant decrease in nanomotion; also recorded: large decrease in Z-movement | decrease in bacterial nanomotion | large drop in Z-motion | no further change in the bacterial nanomotion | decrease in bacterial nanomotion | large decrease in the nano-motion | no bacterial growth | did not lead to cellular growth | no growth of bacterial cells | no bacterial growth | confirmed the death of the bacteria | visible decrease in cell length | decreases in bacterial cell length | 20 | – | –
2 | [H]/N=C(/N)N[C@H]1[C@H](O)[C@@H](O)[C@H](O[C@@H]2O[C@@H](C)[C@](O)(C=O)[C@H]2O[C@@H]2O[C@@H](CO)[C@H](O)[C@@H](O)[C@@H]2NC)[C@@H](N/C(N)=N\[H])[C@@H]1O [streptomycin] | – | – | – | – | – | – | – | – | – | – | – | – | – | – | – | decrease in nano-motion; also recorded: decrease in the nanomotion | confirmed the death of the bacteria
